Columns and labels:
CD73 [1] = molecular target: T1, CD73 (Homo sapiens (Human), UniProt P21589); type: biochemical; details: 1 mM NaH2PO4 in enzyme buffer, CD73 0.3 nM, AMP 15 uM
CD73 [2] = molecular target: T1, CD73; assay: MDA-MB-231 Cell Based CD73 Activity Assay (DMEM); details: MDA-MB-231-GFP cells, DMEM medium with 10% human plasma, 200 uM AMP

T1 sequence (P21589 27-574): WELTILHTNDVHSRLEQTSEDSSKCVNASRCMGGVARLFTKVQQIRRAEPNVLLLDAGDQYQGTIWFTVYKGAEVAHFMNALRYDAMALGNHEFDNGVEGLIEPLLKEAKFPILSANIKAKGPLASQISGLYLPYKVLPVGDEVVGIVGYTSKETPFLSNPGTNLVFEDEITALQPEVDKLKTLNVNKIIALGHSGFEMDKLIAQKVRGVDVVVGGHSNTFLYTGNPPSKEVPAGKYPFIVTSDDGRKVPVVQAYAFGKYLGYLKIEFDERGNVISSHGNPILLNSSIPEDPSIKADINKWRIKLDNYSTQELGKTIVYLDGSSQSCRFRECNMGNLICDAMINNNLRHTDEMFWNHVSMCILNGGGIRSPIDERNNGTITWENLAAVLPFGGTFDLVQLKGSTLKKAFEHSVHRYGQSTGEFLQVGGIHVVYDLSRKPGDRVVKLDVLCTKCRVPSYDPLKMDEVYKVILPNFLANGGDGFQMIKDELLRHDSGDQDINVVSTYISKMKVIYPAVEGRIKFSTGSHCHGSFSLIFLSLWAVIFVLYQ

Row | SMILES | IC50 (CD73 [1]) [nM] | EC50 (CD73 [2]) [nM]
1 | CC(C)NC(=O)CC1CCN(c2cc(-c3c[nH]c(=O)[nH]c3=O)nn3ccnc23)C1 (centres unmarked) [Example 654, 2-(1-(6-(2,4-dioxo-1,2,3,4-tetrahydropyrimidin-5-yl)imidazo[1,2-b]pyridazin-8-yl)pyrrolidin-3-yl)-N-isopropylacetamide] | 54.5 | 133
2 | CC(C)NC(=O)CC1CN(c2cc(-c3c[nH]c(=O)[nH]c3=O)nn3ccnc23)CC1(F)F (centres unmarked) [Example 659, 2-(1-(6-(2,4-dioxo-1,2,3,4-tetrahydropyrimidin-5-yl)imidazo[1,2-b]pyridazin-8-yl)-4,4-difluoropyrrolidin-3-yl)-N-isopropylacetamide] | 3.98 | 38.1
3 | CC(C)NC(=O)C(F)(F)C1CCN(c2cc(-c3c[nH]c(=O)[nH]c3=O)nn3ccnc23)C1 (centres unmarked) [Example 662, 2-(1-(6-(2,4-dioxo-1,2,3,4-tetrahydropyrimidin-5-yl)imidazo[1,2-b]pyridazin-8-yl)pyrrolidin-3-yl)-2,2-difluoro-N-isopropylacetamide] | 19.2 | 88.6
4 | O=C(NC1(C(F)(F)F)CC1)O[C@H]1CN(c2cc(-c3c[nH]c(=O)[nH]c3=O)nn3c(F)cnc23)CC1(F)F [Example 664, (S)-1-(6-(2,4-dioxo-1,2,3,4-tetrahydropyrimidin-5-yl)-3-fluoroimidazo[1,2-b]pyridazin-8-yl)-4,4-difluoropyrrolidin-3-yl (1-(trifluoromethyl)cyclopropyl)carbamate] | 0.92 | 0.21
5 | O=C(NC12CC(C(F)(F)F)(C1)C2)O[C@H]1CN(c2cc(-c3c[nH]c(=O)[nH]c3=O)nn3c(F)cnc23)CC1(F)F [Example 665, (S)-1-(6-(2,4-dioxo-1,2,3,4-tetrahydropyrimidin-5-yl)-3-fluoroimidazo[1,2-b]pyridazin-8-yl)-4,4-difluoropyrrolidin-3-yl (3-(trifluoromethyl)bicyclo[1.1.1]pentan-1-yl)carbamate] | 1.46 | 2.79
6 | O=c1[nH]cc(-c2cc(N3C[C@H](Oc4cc(C(F)(F)F)cnn4)C(F)(F)C3)c3ncc(F)n3n2)c(=O)[nH]1 [Example 666, (S)-5-(8-(3,3-difluoro-4-((5-(trifluoromethyl)pyridazin-3-yl)oxy)pyrrolidin-1-yl)-3-fluoroimidazo[1,2-b]pyridazin-6-yl)pyrimidine-2,4(1H,3H)-dione] | 1.8 | 2.8
7 | COc1ccc(CN(CC(F)F)c2cc(-c3c[nH]c(=O)[nH]c3=O)nn3ccnc23)cc1 [Example 671, 5-(8-((2,2-difluoroethyl)(4-methoxybenzyl)amino)imidazo[1,2-b]pyridazin-6-yl)pyrimidine-2,4(1H,3H)-dione] | > 250 | 1620
8 | O=c1[nH]cc(-c2cc(OCCc3ccccc3)c3nccn3n2)c(=O)[nH]1 [Example 673, 5-(8-phenethoxyimidazo[1,2-b]pyridazin-6-yl)pyrimidine-2,4(1H,3H)-dione] | 5.46 | 31.6
9 | CC(COc1cc(-c2c[nH]c(=O)[nH]c2=O)nn2ccnc12)c1ccccc1 (centres unmarked) [Example 674, 5-(8-(2-phenylpropoxy)imidazo[1,2-b]pyridazin-6-yl)pyrimidine-2,4(1H,3H)-dione] | 16.3 | 48.1
10 | O=c1[nH]cc(-c2cc(OCC(F)(F)F)c3nccn3n2)c(=O)[nH]1 [Example 675, 5-(8-(2,2,2-trifluoroethoxy)imidazo[1,2-b]pyridazin-6-yl)pyrimidine-2,4(1H,3H)-dione] | 49.5 | 78.7
11 | CC(C)(COc1cc(-c2c[nH]c(=O)[nH]c2=O)nn2ccnc12)C(F)(F)F [Example 676, 5-(8-(3,3,3-trifluoro-2,2-dimethylpropoxy)imidazo[1,2-b]pyridazin-6-yl)pyrimidine-2,4(1H,3H)-dione] | 141 | 429
12 | CC(F)(F)COc1cc(-c2c[nH]c(=O)[nH]c2=O)nn2ccnc12 [Example 677, 5-(8-(2,2-difluoropropoxy)imidazo[1,2-b]pyridazin-6-yl)pyrimidine-2,4(1H,3H)-dione] | 12.2 | 22.2
13 | CC(C)COc1cc(-c2c[nH]c(=O)[nH]c2=O)nn2ccnc12 [Example 678, 5-(8-isobutoxyimidazo[1,2-b]pyridazin-6-yl)pyrimidine-2,4(1H,3H)-dione] | 23.9 | 38.8
14 | CC(C)C(C)Oc1cc(-c2c[nH]c(=O)[nH]c2=O)nn2ccnc12 (centres unmarked) [Example 680, 5-(8-((3-methylbutan-2-yl)oxy)imidazo[1,2-b]pyridazin-6-yl)pyrimidine-2,4(1H,3H)-dione] | 225 | 454
15 | O=c1[nH]cc(-c2cc(OCC(F)(F)c3ccccc3)c3nccn3n2)c(=O)[nH]1 [Example 682, 5-(8-(2,2-difluoro-2-phenylethoxy)imidazo[1,2-b]pyridazin-6-yl)pyrimidine-2,4(1H,3H)-dione] | 1.59 | 17.9

Second part, the compound after the results:

Row | IC50 (CD73 [1]) [nM] | EC50 (CD73 [2]) [nM] | SMILES
16 | 19.6 | 79.6 | O=c1[nH]cc(-c2cc(N3CCC(CO)(CCl)C3)c3nccn3n2)c(=O)[nH]1 (centres unmarked) [Example 652, 5-(8-(3-(chloromethyl)-3-(hydroxymethyl)pyrrolidin-1-yl)imidazo[1,2-b]pyridazin-6-yl)pyrimidine-2,4(1H,3H)-dione]
17 | 25.3 | 130 | O=c1[nH]cc(-c2cc(N3CCC4(COC4)C3)c3nccn3n2)c(=O)[nH]1 [Example 653, 5-(8-(2-oxa-6-azaspiro[3.4]octan-6-yl)imidazo[1,2-b]pyridazin-6-yl)pyrimidine-2,4(1H,3H)-dione]
18 | 40.4 | 254 | O=C(CC(F)(F)F)N1CCC12CCN(c1cc(-c3c[nH]c(=O)[nH]c3=O)nn3ccnc13)C2 (centres unmarked) [Example 655, 5-(8-(1-(3,3,3-trifluoropropanoyl)-1,6-diazaspiro[3.4]octan-6-yl)imidazo[1,2-b]pyridazin-6-yl)pyrimidine-2,4(1H,3H)-dione]
19 | 10.1 | 57 | CC(=O)N1CCC12CCN(c1cc(-c3c[nH]c(=O)[nH]c3=O)nn3ccnc13)C2 (centres unmarked) [Example 656, 5-(8-(1-acetyl-1,6-diazaspiro[3.4]octan-6-yl)imidazo[1,2-b]pyridazin-6-yl)pyrimidine-2,4(1H,3H)-dione]
20 | 81.3 | 227 | CC(C)C(=O)N1CCC12CCN(c1cc(-c3c[nH]c(=O)[nH]c3=O)nn3ccnc13)C2 (centres unmarked) [Example 657, 5-(8-(1-isobutyryl-1,6-diazaspiro[3.4]octan-6-yl)imidazo[1,2-b]pyridazin-6-yl)pyrimidine-2,4(1H,3H)-dione]
21 | 1.87 | 7.88 | O=C(CC1CN(c2cc(-c3c[nH]c(=O)[nH]c3=O)nn3ccnc23)CC1(F)F)NC1(C(F)(F)F)CC1 (centres unmarked) [Example 658, 2-(1-(6-(2,4-dioxo-1,2,3,4-tetrahydropyrimidin-5-yl)imidazo[1,2-b]pyridazin-8-yl)-4,4-difluoropyrrolidin-3-yl)-N-(1-(trifluoromethyl)cyclopropyl)acetamide]
22 | 6.05 | 33.6 | O=C(CC1CN(c2cc(-c3c[nH]c(=O)[nH]c3=O)nn3ccnc23)CC1(F)F)NC12CC(F)(C1)C2 (centres unmarked) [Example 660, 2-(1-(6-(2,4-dioxo-1,2,3,4-tetrahydropyrimidin-5-yl)imidazo[1,2-b]pyridazin-8-yl)-4,4-difluoropyrrolidin-3-yl)-N-(3-fluorobicyclo[1.1.1]pentan-1-yl)acetamide]
23 | 4.68 | 25.5 | O=C(CC1CN(c2cc(-c3c[nH]c(=O)[nH]c3=O)nn3ccnc23)CC1(F)F)NC12CC(C1)C2 (centres unmarked) [Example 661, N-(bicyclo[1.1.1]pentan-1-yl)-2-(1-(6-(2,4-dioxo-1,2,3,4-tetrahydropyrimidin-5-yl)imidazo[1,2-b]pyridazin-8-yl)-4,4-difluoropyrrolidin-3-yl)acetamide]
24 | 24.5 | 160 | CC(C)n1cc(CC2CCN(c3cc(-c4c[nH]c(=O)[nH]c4=O)nn4ccnc34)C2)nn1 (centres unmarked) [Example 663, 5-(8-(3-((1-isopropyl-1H-1,2,3-triazol-4-yl)methyl)pyrrolidin-1-yl)imidazo[1,2-b]pyridazin-6-yl)pyrimidine-2,4(1H,3H)-dione]
25 | 100 | 414 | CC(C)CNc1cc(-c2c[nH]c(=O)[nH]c2=O)nn2ccnc12 [Example 667, 5-(8-(isobutylamino)imidazo[1,2-b]pyridazin-6-yl)pyrimidine-2,4(1H,3H)-dione]
26 | > 250 | 857 | CC(C)(C)CNc1cc(-c2c[nH]c(=O)[nH]c2=O)nn2ccnc12 [Example 668, 5-(8-(neopentylamino)imidazo[1,2-b]pyridazin-6-yl)pyrimidine-2,4(1H,3H)-dione]
27 | > 250 | 690 | COCCNc1cc(-c2c[nH]c(=O)[nH]c2=O)nn2ccnc12 [Example 669, 5-(8-((2-methoxyethyl)amino)imidazo[1,2-b]pyridazin-6-yl)pyrimidine-2,4(1H,3H)-dione]
28 | 154 | 573 | O=c1[nH]cc(-c2cc(NCC(F)F)c3nccn3n2)c(=O)[nH]1 [Example 670, 5-(8-((2,2-difluoroethyl)amino)imidazo[1,2-b]pyridazin-6-yl)pyrimidine-2,4(1H,3H)-dione]
29 | 148 | 383 | O=c1[nH]cc(-c2cc(NCC(F)(F)F)c3nccn3n2)c(=O)[nH]1 [Example 672, 5-(8-((2,2,2-trifluoroethyl)amino)imidazo[1,2-b]pyridazin-6-yl)pyrimidine-2,4(1H,3H)-dione]
30 | 61.3 | 94 | O=c1[nH]cc(-c2cc(OCCC(F)(F)F)c3nccn3n2)c(=O)[nH]1 [Example 681, 5-(8-(3,3,3-trifluoropropoxy)imidazo[1,2-b]pyridazin-6-yl)pyrimidine-2,4(1H,3H)-dione]
31 | 1.31 | 10.9 | C#CC1(C)CCN(c2cc(-c3c[nH]c(=O)[nH]c3=O)nn3ccnc23)C1 (centres unmarked) [Example 683, 5-(8-(3-ethynyl-3-methylpyrrolidin-1-yl)imidazo[1,2-b]pyridazin-6-yl)pyrimidine-2,4(1H,3H)-dione]
